# In patent publication US12516044B2, “Heterocyclic compounds as immunomodulators” (Incyte Corporation, priority 2015, dated 2026):
# pIC50: −log10 of the molar value.
# Biological target: T1, PD-1/PD-L1 protein/protein interaction (Homo sapiens, UniProt Q9NZQ7)
# T1 construct: Recombinant human PD-L1 protein (19-238) with a His-tag at the C-terminus; purchased AcroBiosystems PD1-H5229 (PD-L1-His); PD1-H5257 (PD-1-Fc)
# Assay: PD-1/PD-L1 Homogeneous Time-Resolved Fluorescence (HTRF) Binding Assay
# Conditions: recombinant human PD-L1 (19-238) His-tag and human PD-1 (25-167) Fc tag; 25° C., PBS pH 7.4
# Description: Example A. PD-1/PD-L1 Homogeneous Time-Resolved Fluorescence (HTRF) Binding Assay
# The assays were conducted in a standard black 384-well polystyrene plate with a final volume of 20 μL. Inhibitors were first serially diluted in DMSO and then added to the plate wells before the addition of other reaction components. The final concentration of DMSO in the assay was 1%. The assays were carried out at 25° C. in the PBS buffer (pH 7.4) with 0.05% Tween-20 and 0.1% BSA. Recombinant human PD-L1 protein (19-238) with a His-tag at the C-terminus was purchased from AcroBiosystems (PD1-H5229). Recombinant human PD-1 protein (25-167) with Fc tag at the C-terminus was also purchased from AcroBiosystems (PD1-H5257). PD-L1 and PD-1 proteins were diluted in the assay buffer and 10 μL was added to the plate well. Plates were centrifuged and proteins were preincubated with inhibitors for 40 minutes. The incubation was followed by the addition of […] of HTRF detection buffer supplemented with Europium cryptate-labeled anti-human IgG (PerkinElmer-AD0212) specific for Fc and anti-His antibody conjugated to SureLight®-Allophycocyanin (APC, PerkinElmer-AD0059H). After centrifugation, the plate was incubated at 25° C. for 60 min. before reading on a PHERAstar FS plate reader (665 nm/620 nm ratio). Final concentrations in the assay were […] PD1, 10 nM PD-L1, 1 nM europium anti-human IgG and 20 nM anti-His-Allophycocyanin. IC50 determination was performed by fitting the curve of percent control activity versus the log of the inhibitor concentration using the GraphPad Prism 5.0 software.
# T1 sequence (Q9NZQ7 19-238): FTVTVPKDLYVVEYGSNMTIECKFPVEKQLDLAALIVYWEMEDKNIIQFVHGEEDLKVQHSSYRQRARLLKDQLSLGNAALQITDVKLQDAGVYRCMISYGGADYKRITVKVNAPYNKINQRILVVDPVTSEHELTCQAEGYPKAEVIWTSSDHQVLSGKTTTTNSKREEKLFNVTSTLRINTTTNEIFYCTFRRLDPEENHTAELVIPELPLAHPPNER
row,Compound,pIC50
1,"Cc1cc(CN2CCCC[C@H]2C(=O)O)cnc1C(=O)Nc1cccc(-c2ccccc2)c1C [Example 3, (2S)-1-[(5-methyl-6-{[(2-methylbiphenyl-3-yl)amino]carbonyl}pyridin-3-yl)methyl]piperidine-2-carboxylic Acid]",6.00 to 7.00
2,"Cc1cc(CNCCO)cnc1C(=O)Nc1cccc(-c2ccccc2)c1C [Example 4, 5-{[(2-hydroxyethyl)amino]methyl}-3-methyl-N-(2-methylbiphenyl-3-yl)pyridine-2-carboxamide]",7.00 to 8.00
3,"Cc1c(NC(=O)c2ncc(CN3CCCC[C@H]3C(=O)O)cn2)cccc1-c1ccccc1 [Example 5, (2S)-1-[(2-{[(2-methylbiphenyl-3-yl)amino]carbonyl}pyrimidin-5-yl)methyl]piperidine-2-carboxylic Acid]",6.00 to 7.00
4,"N#Cc1c(NC(=O)c2ccc(CN3CCCC[C@H]3C(=O)O)cn2)cccc1-c1ccc2c(c1)OCCO2 [Example 9, (2S)-1-{[6-({[2-cyano-3-(2,3-dihydro-1,4-benzodioxin-6-yl)phenyl]amino}carbonyl)pyridin-3-yl]methyl}piperidine-2-carboxylic Acid]",7.00 to 8.00
5,"Cc1c(NC(=O)c2cnc(CNCCO)cn2)cccc1-c1ccccc1 [Example 11, 5-{[(2-hydroxyethyl)amino]methyl}-N-(2-methylbiphenyl-3-yl)pyrazine-2-carboxamide]",7.00 to 8.00
6,"Cc1c(NC(=O)c2ccc(CNCCO)nn2)cccc1-c1ccccc1 [Example 12, 6-{[(2-hydroxyethyl)amino]methyl}-N-(2-methylbiphenyl-3-yl)pyridazine-3-carboxamide]",7.00 to 8.00
7,"Cc1nc(C(=O)Nc2cccc(-c3ccccc3)c2C)ccc1CN1CCCC[C@H]1C(=O)O [Example 13, (2S)-1-[(2-methyl-6-{[(2-methylbiphenyl-3-yl)amino]carbonyl}pyridin-3-yl)methyl]piperidine-2-carboxylic Acid]",6.00 to 7.00
8,"Cc1nc(C(=O)Nc2cccc(-c3ccccc3)c2C)ccc1CNCCO [Example 14, 5-{[(2-hydroxyethyl)amino]methyl}-6-methyl-N-(2-methylbiphenyl-3-yl)pyridine-2-carboxamide]",7.00 to 8.00
9,"Cc1c(NC(=O)c2ncc(CNCCO)cc2Cl)cccc1-c1ccccc1 [Example 16, 3-chloro-5-{[(2-hydroxyethyl)amino]methyl}-N-(2-methylbiphenyl-3-yl)pyridine-2-carboxamide]",7.00 to 8.00
10,"Cc1c(NC(=O)c2cc(OCc3cccnc3)c(CNCCO)cn2)cccc1-c1ccccc1 [Example 19, 5-{[(2-hydroxyethyl)amino]methyl}-N-(2-methylbiphenyl-3-yl)-4-(pyridin-3-ylmethoxy)pyridine-2-carboxamide]",7.00 to 8.00
11,"Cc1c(NC(=O)c2cc(C#N)ccn2)cccc1-c1ccccc1 [Example 25, 4-cyano-N-(2-methylbiphenyl-3-yl)pyridine-2-carboxamide]",7.00 to 8.00
12,"Cc1c(NC(=O)c2cnccn2)cccc1-c1ccccc1 [Example 26, N-(2-methylbiphenyl-3-yl)pyrazine-2-carboxamide]",7.00 to 8.00
13,"Cc1c(NC(=O)c2ncccn2)cccc1-c1ccccc1 [Example 28, N-(2-methylbiphenyl-3-yl)pyrimidine-2-carboxamide]",6.00 to 7.00
14,"Cc1c(NC(=O)c2ccnc(OCc3cccnc3)n2)cccc1-c1ccccc1 [Example 30, N-(2-methylbiphenyl-3-yl)-2-(pyridin-3-ylmethoxy)pyrimidine-4-carboxamide]",6.00 to 7.00
15,"Cc1cc(C(=O)Nc2cccc(-c3ccccc3)c2C)ncc1CNCCO [Example 33, 5-{[(2-hydroxyethyl)amino]methyl}-4-methyl-N-(2-methylbiphenyl-3-yl)pyridine-2-carboxamide]",≥ 8.00
16,"Cc1c(NC(=O)c2cc(OCC3CC3)c(CNCCO)cn2)cccc1-c1ccccc1 [Example 34, 4-(cyclopropylmethoxy)-5-((2-hydroxyethylamino)methyl)-N-(2-methylbiphenyl-3-yl)picolinamide]",7.00 to 8.00
17,"Cc1cnc(C(=O)Nc2cccc(-c3ccccc3)c2C)cc1CN1CCCC[C@H]1C(=O)O [Example 36, (2S)-1-[(5-methyl-2-{[(2-methylbiphenyl-3-yl)amino]carbonyl}pyridin-4-yl)methyl]piperidine-2-carboxylic Acid]",7.00 to 8.00

# More lines, now with the values ahead:
row,pIC50,Compound
1,7.00 to 8.00,"Cc1c(NC(=O)c2ccc(CN3CCCC[C@H]3C(=O)O)cn2)cccc1-c1ccccc1 [Example 1, (2S)-1-[(6-{[(2-methylbiphenyl-3-yl)amino]carbonyl}pyridin-3-yl)methyl]piperidine-2-carboxylic Acid]"
2,7.00 to 8.00,"Cc1c(NC(=O)c2ccc(CNCCO)cn2)cccc1-c1ccccc1 [Example 2, 5-{[(2-hydroxyethyl)amino]methyl}-N-(2-methylbiphenyl-3-yl)pyridine-2-carboxamide]"
3,7.00 to 8.00,"Cc1c(NC(=O)c2ncc(CNCCO)cn2)cccc1-c1ccccc1 [Example 6, 5-{[(2-hydroxyethyl)amino]methyl}-N-(2-methylbiphenyl-3-yl)pyrimidine-2-carboxamide]"
4,7.00 to 8.00,"N#Cc1c(NC(=O)c2ccc(CN3CCCC[C@H]3C(=O)O)cn2)cccc1-c1ccccc1 [Example 7, (2S)-1-[(6-{[(2-cyanobiphenyl-3-yl)amino]carbonyl}pyridin-3-yl)methyl]piperidine-2-carboxylic Acid]"
5,≥ 8.00,"N#Cc1c(NC(=O)c2ccc(CNCCO)cn2)cccc1-c1ccccc1 [Example 8, N-(2-cyanobiphenyl-3-yl)-5-{[(2-hydroxyethyl)amino]methyl}pyridine-2-carboxamide]"
6,≥ 8.00,"N#Cc1c(NC(=O)c2ccc(CNCCO)cn2)cccc1-c1ccc2c(c1)OCCO2 [Example 10, N-(2-cyano-3-(2,3-dihydrobenzo[b][1,4]dioxin-6-yl)phenyl)-5-((2-hydroxyethylamino)methyl)picolinamide]"
7,6.00 to 7.00,"Cc1c(NC(=O)c2ncc(CN3CCCC[C@H]3C(=O)O)cc2Cl)cccc1-c1ccccc1 [Example 15, (2S)-1-[(5-chloro-6-{[(2-methylbiphenyl-3-yl)amino]carbonyl}pyridin-3-yl)methyl]piperidine-2-carboxylic Acid]"
8,7.00 to 8.00,"Cc1c(NC(=O)c2ncc(CNCCO)cc2F)cccc1-c1ccccc1 [Example 17, 3-fluoro-5-{[(2-hydroxyethyl)amino]methyl}-N-(2-methylbiphenyl-3-yl)pyridine-2-carboxamide]"
9,7.00 to 8.00,"Cc1c(NC(=O)c2cc(OCc3cccc(C#N)c3)c(CNCCO)cn2)cccc1-c1ccccc1 [Example 18, 4-[(3-cyanobenzyl)oxy]-5-{[(2-hydroxyethyl)amino]methyl}-N-(2-methylbiphenyl-3-yl)pyridine-2-carboxamide]"
10,7.00 to 8.00,"Cc1c(NC(=O)c2cc(OCc3ccccn3)c(CNCCO)cn2)cccc1-c1ccccc1 [Example 20, 5-{[(2-hydroxyethyl)amino]methyl}-N-(2-methylbiphenyl-3-yl)-4-(pyridin-2-ylmethoxy)pyridine-2-carboxamide]"
11,6.00 to 7.00,"Cc1c(NC(=O)c2ncc(CNCCO)cc2N(C)C)cccc1-c1ccccc1 [Example 21, 3-(dimethylamino)-5-{[(2-hydroxyethyl)amino]methyl}-N-(2-methylbiphenyl-3-yl)pyridine-2-carboxamide]"
12,7.00 to 8.00,"Cc1c(NC(=O)c2cc(CNCCO)ccn2)cccc1-c1ccccc1 [Example 23, 4-{[(2-hydroxyethyl)amino]methyl}-N-(2-methylbiphenyl-3-yl)pyridine-2-carboxamide]"
13,6.00 to 7.00,"Cc1c(NC(=O)c2cc(OCc3cccnc3)ncn2)cccc1-c1ccccc1 [Example 24, N-(2-methylbiphenyl-3-yl)-6-(pyridin-3-ylmethoxy)pyrimidine-4-carboxamide]"
14,7.00 to 8.00,"Cc1c(NC(=O)c2ccncn2)cccc1-c1ccccc1 [Example 27, N-(2-methylbiphenyl-3-yl)pyrimidine-4-carboxamide]"
15,6.00 to 7.00,"Cc1c(NC(=O)c2cccnn2)cccc1-c1ccccc1 [Example 29, N-(2-methylbiphenyl-3-yl)pyridazine-3-carboxamide]"
16,7.00 to 8.00,"Cc1c(NC(=O)c2cc(-c3ccncc3)c(CNCCO)cn2)cccc1-c1ccccc1 [Example 31, 5-{[(2-hydroxyethyl)amino]methyl}-N-(2-methylbiphenyl-3-yl)-4,4′-bipyridine-2-carboxamide]"
17,≥ 8.00,"Cc1cc(C(=O)Nc2cccc(-c3ccccc3)c2C)ncc1CN1CCCC[C@H]1C(=O)O [Example 32, (2S)-1-[(4-methyl-6-{[(2-methylbiphenyl-3-yl)amino]carbonyl}pyridin-3-yl)methyl]piperidine-2-carboxylic Acid]"
18,≥ 8.00,"COc1cc(C(=O)Nc2cccc(-c3ccccc3)c2C)ncc1CNCCO [Example 35, 5-{[(2-hydroxyethyl)amino]methyl}-4-methoxy-N-(2-methylbiphenyl-3-yl)pyridine-2-carboxamide]"
